Assay type in all cases: functional
Experiment [1] concerns Vibrio harveyi. Description: Effect on 1-methyl-4-phenyl-2,3-dihydropyridinium-induced mutagenicity in Vibrio harveyi BB7XM assessed as number of neomycin-resistant mutants at 10 uM.
In experiment [2] the test system is Vibrio harveyi. Description: Effect on 1-methyl-4-phenyl-2,3-dihydropyridinium-induced mutagenicity in Vibrio harveyi BB7XM assessed as number of neomycin-resistant mutants at 500 uM.
Experiment [3] deals with Vibrio harveyi. The experiment is described as follows: Effect on 1-methyl-4-phenylpyridinium-induced mutagenicity in Vibrio harveyi BB7XM assessed as number of neomycin-resistant mutants at 500 uM.
The test system of experiment [4] is Vibrio harveyi. The experiment is described as follows: Effect on 1-methyl-4-phenylpyridinium-induced mutagenicity in Vibrio harveyi BB7XM assessed as number of neomycin-resistant mutants at 10 uM.
In experiment [5] the test system is Vibrio harveyi. Description: Effect on 1-methyl-4-phenyl-2,3-dihydropyridinium-induced mutagenicity in Vibrio harveyi BB7XM assessed as number of neomycin-resistant mutants at 1000 uM.
Experiment [6] concerns Vibrio harveyi. Description: Effect on 1-methyl-4-phenylpyridinium-induced mutagenicity in Vibrio harveyi BB7XM assessed as number of neomycin-resistant mutants at 100 uM.
For experiment [7], the system named is Vibrio harveyi. Description: Effect on 1-methyl-4-phenyl-2,3-dihydropyridinium-induced mutagenicity in Vibrio harveyi BB7XM assessed as number of neomycin-resistant mutants at 100 uM.
Experiment [8] has as its system Vibrio harveyi. The experiment is described as follows: Effect on 1-methyl-4-phenylpyridinium-induced mutagenicity in Vibrio harveyi BB7XM assessed as number of neomycin-resistant mutants at 1000 uM.

For `Cn1c(=O)c2c(ncn2C)n(C)c1=O` [CAFFEINE], the Activity was 293 in the experiment with Vibrio harveyi [1]; 51 in the experiment on Vibrio harveyi [2]; 31 in the experiment with Vibrio harveyi [3]; 103 with Vibrio harveyi [4]; 47 in the experiment on Vibrio harveyi [5]; 50 with Vibrio harveyi [6]. The Activity in the experiment on Vibrio harveyi [7] turned out to be 70; in the experiment on Vibrio harveyi [8], 7.
For `CC(=O)CCCCn1c(=O)c2c(ncn2C)n(C)c1=O` [PENTOXIFYLLINE], the Activity was found to be 278 in the experiment on Vibrio harveyi [1]; 77 in the experiment on Vibrio harveyi [2]; 52 in the experiment with Vibrio harveyi [3]; 116 with Vibrio harveyi [4]; 51 in the experiment with Vibrio harveyi [5]; 78 in the experiment with Vibrio harveyi [6]. Also, the Activity with Vibrio harveyi [7] was determined as 143; in the experiment on Vibrio harveyi [8] it was 24.

The record behind these values is ChEMBL document CHEMBL1149602, “Impaired mutagenic activities of MPDP(+) (1-methyl-4-phenyl-2,3-dihydropyridinium) and MPP(+) (1-methyl-4-phenylpyridinium) due to their interactions with methylxanthines” (2007).
